Test system: Jatropha curcas embryogenic calli
Assay: Embryogenic liquid suspension culture
Type: cell-based
Conditions: liquid medium
Method: FIGS. 5A-5D show embryogenic liquid suspension culture. About 50 mg embryogenic calli produced in solid DGA medium were inoculated in 20 ml modified DGA liquid media. Embryos larger than 2 mm were removed before inoculation. Subculture was done every two weeks. Photos were taken after 2 subcultures. FIG. 5A: 20 g/l sucrose, 1 g/l glutamine, 0.5 g/l asparagine, no 2,4-D. FIG. 5B: 20 g/l sucrose, 1 g/l glutamine, 0.5 g/l asparagine, 0.2 g/1 2,4-D. FIG. 5C: 30 g/l sucrose, 1 g/l glutamine, 0.5 g/l asparagine, 0.2 g/1 2,4-D. FIG. 5D: 20 g/l sucrose, 1 g/l glutamine, 0.5 g/l asparagine, 1 g/1 2,4-D. Arrow indicates the non-embryogenic ball-shaped calli. Scale bar represents 1 cm.
Liquid cultures were performed in 65 mm plastic cylinder containers or 250 ml glass conical flasks that were placed in shakers set at 80 rpm, 28° C. constant temperature and 16-8 hours day-light cycles.
Effects 2,4-D and carbon source on establishment of somatic embryogenic liquid suspension culture was investigated. […] At sucrose level ranging from 10-30 g/l, continued culture lead to maturation of the somatic embryo with no new initiation of secondary embryos (FIG. 5A). The somatic embryos thus produced share good synchrony and are excellent materials for re-induction of TIISEs (Refer to Example 13). […] The suspension cultures were stable for months if large embryos were removed. Further, sucrose concentration needs to be reduced below about 20 g/l (compare FIGS. 5B and 5C).

Structure (SMILES): O=C(O)COc1ccc(Cl)cc1Cl [2,4-D, 2,4-dichlorophenoxyacetic acid]
- maturation of somatic embryos (2,4-D 0.1-0.5 g/l): significantly inhibited maturation of somatic embryos
- calli multiplication and embryogenicity (2,4-D higher than 0.5 g/l): calli multiplication and embryogenicity was poor
